Values quoted from earlier work as cited in EP2965746B1 (Santa Farma Ilaç Sanayi A.S., priority 2014, dated 2016).
Values after ≈ are worked out from the molar mass of the structure shown.

How the values were obtained:
[1] = in water
[2] = in vivo
[3] = in vivo; remark: listed apart in the source

Row | Structure (SMILES) | solubility [1] [µg/mL] | absolute bioavailability [2] | time to reach maximum plasma concentration (Tmax) [3] [h]
1 | CC(C)Cc1ccc(C(C)C(=O)O)cc1 (racemic) [Ibuprofen, (±)-(R,S)-2-(4-isobutylphenyl)-propionic acid] | 0.078 (≈ 0.378 µM) | about 100% | 1.4 ± 1.1
2 | CC(C)Cc1ccc(C(C)C(=O)O)cc1.O.O.[Na] (stereo not shown) [Ibuprofen sodium dihydrate, ibuprofen sodium dihydrate] |  |  | 0.6 ± 0.3
